Laboratory results from the NIST ThermoML archive (doi:10.1007/s10765-010-0768-y).
± gives the expanded uncertainty stated by the source.

Assay: xn = mol fraction of the nth substance listed
Conditions: 101 kPa, Liquid, Pycnometric method

C=CC(=O)OCCCC [butyl 2-propenoate] + Cc1cccc(C)c1
mass density [kg/m3]
Conditions	288.15 K	293.15 K	298.15 K	303.15 K	308.15 K	313.15 K	318.15 K
x1 = 0.0732	871.73 ± 0.22	867.39 ± 0.21	863.05 ± 0.22	858.71 ± 0.23	854.37 ± 0.24	850.04 ± 0.25	845.71 ± 0.26
x1 = 0.1432	874.65 ± 0.22	870.26 ± 0.21	865.87 ± 0.22	861.48 ± 0.23	857.1 ± 0.24	852.72 ± 0.25	848.34 ± 0.26
x1 = 0.2103	877.37 ± 0.23	872.94 ± 0.21	868.51 ± 0.22	864.08 ± 0.23	859.66 ± 0.24	855.24 ± 0.25	850.82 ± 0.26
x1 = 0.2841	880.28 ± 0.23	875.81 ± 0.22	871.34 ± 0.23	866.87 ± 0.24	862.41 ± 0.25	857.95 ± 0.26	853.49 ± 0.27
x1 = 0.3605	883.19 ± 0.23	878.68 ± 0.22	874.17 ± 0.23	869.66 ± 0.24	865.16 ± 0.25	860.66 ± 0.26	856.16 ± 0.27
x1 = 0.4318	885.82 ± 0.24	881.28 ± 0.23	876.74 ± 0.24	872.2 ± 0.25	867.66 ± 0.26	863.12 ± 0.27	858.58 ± 0.27
x1 = 0.5006	888.28 ± 0.24	883.7 ± 0.23	879.12 ± 0.24	874.55 ± 0.25	869.98 ± 0.26	865.41 ± 0.27	860.84 ± 0.28
x1 = 0.5778	890.95 ± 0.25	886.34 ± 0.23	881.73 ± 0.24	877.12 ± 0.25	872.51 ± 0.26	867.9 ± 0.27	863.3 ± 0.28
x1 = 0.6534	893.46 ± 0.25	888.81 ± 0.24	884.17 ± 0.25	879.53 ± 0.26	874.89 ± 0.27	870.25 ± 0.28	865.61 ± 0.29
x1 = 0.7204	895.6 ± 0.25	890.93 ± 0.24	886.26 ± 0.25	881.59 ± 0.26	876.92 ± 0.27	872.25 ± 0.28	867.58 ± 0.29
x1 = 0.7935	897.84 ± 0.26	893.13 ± 0.25	888.43 ± 0.26	883.73 ± 0.27	879.03 ± 0.28	874.33 ± 0.28	869.63 ± 0.29
x1 = 0.8579	899.73 ± 0.26	895 ± 0.25	890.27 ± 0.26	885.54 ± 0.27	880.82 ± 0.28	876.1 ± 0.29	871.38 ± 0.3
x1 = 0.9306	901.78 ± 0.27	897.03 ± 0.26	892.28 ± 0.26	887.53 ± 0.27	882.79 ± 0.28	878.05 ± 0.29	873.31 ± 0.3
x1 = 1	903.6 ± 0.27	898.85 ± 0.26	894.1 ± 0.27	889.35 ± 0.28	884.6 ± 0.29	879.85 ± 0.3	875.1 ± 0.31

C=CC(=O)OCCCC [butyl 2-propenoate] + c1ccccc1
mass density [kg/m3]
Conditions	288.15 K	293.15 K	298.15 K	303.15 K	308.15 K	313.15 K	318.15 K
x1 = 0.0722	887.23 ± 0.22	881.89 ± 0.21	876.56 ± 0.22	871.23 ± 0.23	865.9 ± 0.24	860.57 ± 0.25	855.24 ± 0.26
x1 = 0.142	889.79 ± 0.22	884.48 ± 0.21	879.17 ± 0.22	873.86 ± 0.23	868.56 ± 0.24	863.26 ± 0.25	857.96 ± 0.26
x1 = 0.2062	891.94 ± 0.22	886.65 ± 0.21	881.36 ± 0.22	876.08 ± 0.23	870.8 ± 0.24	865.52 ± 0.25	860.24 ± 0.26
x1 = 0.2794	894.12 ± 0.23	888.87 ± 0.22	883.62 ± 0.23	878.37 ± 0.23	873.12 ± 0.24	867.87 ± 0.25	862.62 ± 0.26
x1 = 0.3586	896.24 ± 0.23	891.02 ± 0.22	885.8 ± 0.23	880.58 ± 0.24	875.36 ± 0.25	870.14 ± 0.26	864.92 ± 0.27
x1 = 0.4363	898.02 ± 0.24	892.83 ± 0.22	887.64 ± 0.23	882.46 ± 0.24	877.28 ± 0.25	872.1 ± 0.26	866.92 ± 0.27
x1 = 0.5074	899.4 ± 0.24	894.25 ± 0.23	889.11 ± 0.24	883.97 ± 0.25	878.83 ± 0.26	873.69 ± 0.27	868.55 ± 0.28
x1 = 0.5818	900.63 ± 0.24	895.53 ± 0.23	890.43 ± 0.24	885.33 ± 0.25	880.23 ± 0.26	875.13 ± 0.27	870.03 ± 0.28
x1 = 0.6423	901.47 ± 0.25	896.4 ± 0.24	891.33 ± 0.24	886.26 ± 0.25	881.2 ± 0.26	876.14 ± 0.27	871.08 ± 0.28
x1 = 0.7226	902.36 ± 0.25	897.34 ± 0.24	892.32 ± 0.25	887.3 ± 0.26	882.29 ± 0.27	877.28 ± 0.28	872.27 ± 0.29
x1 = 0.7902	902.91 ± 0.26	897.94 ± 0.24	892.97 ± 0.25	888 ± 0.26	883.03 ± 0.27	878.07 ± 0.28	873.11 ± 0.29
x1 = 0.8563	903.29 ± 0.26	898.38 ± 0.25	893.47 ± 0.26	888.56 ± 0.27	883.65 ± 0.28	878.75 ± 0.29	873.85 ± 0.3
x1 = 0.9305	903.53 ± 0.27	898.69 ± 0.25	893.85 ± 0.26	889.01 ± 0.27	884.18 ± 0.28	879.35 ± 0.29	874.52 ± 0.3
x1 = 1	903.6 ± 0.27	898.85 ± 0.26	894.1 ± 0.27	889.35 ± 0.28	884.6 ± 0.29	879.85 ± 0.3	875.1 ± 0.31

C=CC(=O)OCCCC [butyl 2-propenoate] + Cc1ccccc1C
mass density [kg/m3]
Conditions	288.15 K	293.15 K	298.15 K	303.15 K	308.15 K	313.15 K	318.15 K
x1 = 0.0685	885.81 ± 0.23	881.5 ± 0.21	877.19 ± 0.22	872.88 ± 0.23	868.57 ± 0.24	864.26 ± 0.25	859.95 ± 0.26
x1 = 0.1306	887.32 ± 0.23	882.97 ± 0.22	878.62 ± 0.23	874.27 ± 0.24	869.92 ± 0.25	865.57 ± 0.26	861.22 ± 0.27
x1 = 0.2018	889 ± 0.23	884.6 ± 0.22	880.2 ± 0.23	875.8 ± 0.24	871.41 ± 0.25	867.02 ± 0.26	862.63 ± 0.27
x1 = 0.2738	890.63 ± 0.23	886.19 ± 0.22	881.75 ± 0.23	877.31 ± 0.24	872.87 ± 0.25	868.44 ± 0.26	864.01 ± 0.27
x1 = 0.3654	892.61 ± 0.24	888.12 ± 0.23	883.63 ± 0.24	879.14 ± 0.25	874.65 ± 0.26	870.17 ± 0.27	865.69 ± 0.28
x1 = 0.4331	894.01 ± 0.24	889.49 ± 0.23	884.97 ± 0.24	880.45 ± 0.25	875.93 ± 0.26	871.41 ± 0.27	866.89 ± 0.28
x1 = 0.5072	895.49 ± 0.24	890.93 ± 0.23	886.37 ± 0.24	881.81 ± 0.25	877.25 ± 0.26	872.7 ± 0.27	868.14 ± 0.28
x1 = 0.589	897.05 ± 0.25	892.45 ± 0.24	887.85 ± 0.25	883.25 ± 0.26	878.65 ± 0.27	874.06 ± 0.28	869.47 ± 0.29
x1 = 0.6522	898.2 ± 0.25	893.57 ± 0.24	888.94 ± 0.25	884.31 ± 0.26	879.68 ± 0.27	875.06 ± 0.28	870.44 ± 0.29
x1 = 0.7283	899.51 ± 0.26	894.85 ± 0.24	890.19 ± 0.25	885.53 ± 0.26	880.87 ± 0.27	876.21 ± 0.28	871.55 ± 0.29
x1 = 0.7924	900.56 ± 0.26	895.87 ± 0.25	891.18 ± 0.26	886.49 ± 0.27	881.8 ± 0.28	877.12 ± 0.29	872.44 ± 0.3
x1 = 0.8587	901.6 ± 0.26	896.88 ± 0.25	892.16 ± 0.26	887.45 ± 0.27	882.74 ± 0.28	878.03 ± 0.29	873.32 ± 0.3
x1 = 0.9298	902.64 ± 0.27	897.9 ± 0.26	893.16 ± 0.27	888.42 ± 0.27	883.69 ± 0.28	878.96 ± 0.29	874.23 ± 0.3
x1 = 1	903.6 ± 0.27	898.85 ± 0.26	894.1 ± 0.27	889.35 ± 0.28	884.6 ± 0.29	879.85 ± 0.3	875.1 ± 0.31

C=CC(=O)OCCCC [butyl 2-propenoate] + Cc1ccc(C)cc1
mass density [kg/m3]
Conditions	288.15 K	293.15 K	298.15 K	303.15 K	308.15 K	313.15 K	318.15 K
x1 = 0.0712	868.91 ± 0.22	864.5 ± 0.21	860.09 ± 0.22	855.68 ± 0.23	851.28 ± 0.24	846.88 ± 0.25	842.48 ± 0.26
x1 = 0.1429	872.25 ± 0.22	867.79 ± 0.21	863.33 ± 0.22	858.87 ± 0.23	854.42 ± 0.24	849.97 ± 0.25	845.52 ± 0.26
x1 = 0.213	875.39 ± 0.23	870.89 ± 0.21	866.39 ± 0.22	861.89 ± 0.23	857.39 ± 0.24	852.9 ± 0.25	848.41 ± 0.26
x1 = 0.2833	878.45 ± 0.23	873.91 ± 0.22	869.37 ± 0.23	864.84 ± 0.24	860.31 ± 0.25	855.78 ± 0.26	851.25 ± 0.27
x1 = 0.3623	881.76 ± 0.23	877.19 ± 0.22	872.62 ± 0.23	868.05 ± 0.24	863.48 ± 0.25	858.91 ± 0.26	854.34 ± 0.27
x1 = 0.4313	884.56 ± 0.24	879.95 ± 0.23	875.34 ± 0.23	870.74 ± 0.24	866.14 ± 0.25	861.54 ± 0.26	856.94 ± 0.27
x1 = 0.5088	887.58 ± 0.24	882.94 ± 0.23	878.3 ± 0.24	873.66 ± 0.25	869.03 ± 0.26	864.4 ± 0.27	859.77 ± 0.28
x1 = 0.5829	890.35 ± 0.25	885.68 ± 0.23	881.01 ± 0.24	876.34 ± 0.25	871.68 ± 0.26	867.02 ± 0.27	862.36 ± 0.28
x1 = 0.6542	892.91 ± 0.25	888.21 ± 0.24	883.51 ± 0.25	878.82 ± 0.26	874.13 ± 0.27	869.44 ± 0.28	864.75 ± 0.29
x1 = 0.7216	895.22 ± 0.25	890.5 ± 0.24	885.78 ± 0.25	881.06 ± 0.26	876.35 ± 0.27	871.64 ± 0.28	866.93 ± 0.29
x1 = 0.7922	897.54 ± 0.26	892.8 ± 0.25	888.06 ± 0.26	883.32 ± 0.27	878.58 ± 0.28	873.85 ± 0.28	869.12 ± 0.29
x1 = 0.8586	899.61 ± 0.26	894.85 ± 0.25	890.09 ± 0.26	885.33 ± 0.27	880.58 ± 0.28	875.83 ± 0.29	871.08 ± 0.3
x1 = 0.9294	901.67 ± 0.27	896.91 ± 0.26	892.15 ± 0.26	887.39 ± 0.27	882.63 ± 0.28	877.88 ± 0.29	873.13 ± 0.3
x1 = 1	903.6 ± 0.27	898.85 ± 0.26	894.1 ± 0.27	889.35 ± 0.28	884.6 ± 0.29	879.85 ± 0.3	875.1 ± 0.31
